The test system of series [1] is human duplex sequence FdxT. Kind of series: FRET-melting, FdxT. The settings on record: duplex control, K+ condition, 2 μM compound, 0.2 μM oligonucleotide.
Series [2] relates to T. brucei brucei AnTat 1.9. The series is described as follows: In vitro antitrypanosomal activity, Alamar Blue assay. Format: cell-based, Trypanosoma brucei brucei. Conditions: read-out: IC50 T. brucei brucei. The essentials: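 Bloodstream-form parasites (2000/well) cultured in modified MEM with 20% heat-inactivated horse serum, 37 °C, 5% CO2, exposed in duplicate to compound in 0.9% NaCl for 69 h. Alamar Blue added for 5 h, fluorescence at 530/590 nm; IC50 by non-linear regression, from three independent experiments.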

A further series concerns HepG2 cells. The series is described as follows: Cytotoxicity evaluation, MTT. Type of series: cell-based, human. As to the method: (§1) The aim of this assay was to evaluate the impact of metabolic activation of the tested compounds on cell viability.
(§2) A cytotoxicity evaluation was performed using the method reported in Emami S A et al., Iran J Basic Med Sci 2012; 15:807-11 to determine the cytotoxic concentrations 50% (CC50) and using doxorubicin as a cytotoxic reference compound. These assays were performed in human HepG2 cells. HepG2 cells were purchased from ATCC (ref HB-8065). These cells are a commonly used human hepatocarcinoma-derived cell line that has characteristics similar to those of primary hepatocytes. These cells express many hepatocyte-specific metabolic enzymes, thus enabling the cytotoxicity of tested product metabolites to be evaluated. Briefly, cells in 100 μl of complete RPMI medium [RPMI supplemented with 10% FCS, 1% 1-glutamine (200 mM), penicillin (100 U/ml), and streptomycin (100 μg/ml)] were inoculated into each well of 96-well plates and incubated at 37° C. in a humidified chamber in 6% CO2. After 24 hours, 100 μl of medium with test compound at various concentrations dissolved in DMSO (final concentration less than 0.5% v/v) was added, and the plates were incubated for 72 hours at 37° C. Duplicate assays were performed for each sample. Each well was microscopically examined for precipitate formation before the medium was aspirated from the wells. After aspiration, 100 μl of MTT solution (0.5 mg/ml in medium without FCS) were then added to each well. Cells were incubated for 2 hours at 37° C. MTT solution was removed, and DMSO (100 μl) was added to dissolve the resulting blue formazan crystals. Plates were shaken vigorously (300 rpm) for 5 min. The absorbance was measured at 570 nm with 630 nm as reference wavelength in a BIO-TEK ELx808 Absorbance Microplate Reader. DMSO was used as blank and doxorubicin (Sigma-Aldrich) as positive control. Cell viability was calculated as percentage of control (cells incubated without compound).

A further series relates to Plasmodium falciparum W2. Kind of series: In vitro antiplasmodial activity, SYBR Green I, strain W2.
For series [3], the system named is Plasmodium falciparum 3D7. Kind of series: In vitro antiplasmodial activity, SYBR Green I, strain 3D7.
Method: (§3) The in vitro antiplasmodial activities were tested over concentrations ranging from 39 to 40 μm against culture-adapted Plasmodium falciparum: reference strains 3D7 and W2. […] The parasites were cultivated in RPMI medium (Sigma-Aldrich, Lyon, France) supplemented with 0.5% Albumax I (Life Technologies Corporation, Paisley, UK), hypoxanthine (Sigma-Aldrich), and gentamicin (Sigma-Aldrich) with human erythrocytes and were incubated at 37° C. in a candle jar, as described in Desjardins R E et al., Antimicrob Agents Chemother, 1979; 16:710-18.
(§4) The P. falciparum drug susceptibility test was carried out in 96-well flat bottom sterile plates in a final volume of 250 μL. After a 48-hour incubation with the drugs, quantities of DNA in treated and control cultures of parasites in human erythrocytes were quantified using the SYBR Green I (Sigma-Aldrich) fluorescence-based method as described in Bennett T N et al, Antimicrob Agents Chemother, 2004; 48:1807-10. Briefly, after incubation, plates were frozen at −20° C. until use. Plates were then thawed for 2 hours at room temperature, and 100 μL of each homogenized culture was transferred to a well of a 96-well flat bottom sterile black plate (Nunc, Inc., Rochester, NY) that contained 100 μL of the SYBR Green I lysis buffer (2×SYBR Green, 20 mM Tris base pH 7.5, 5 mM EDTA, 0.008% w/v saponin, 0.08% w/v Triton X-100). […] Plates were incubated for 1 hour at room temperature and then read on a fluorescence plate reader (Tecan, Grödig, Austria) using excitation and emission wavelengths of 485 and 535 nm, respectively. Concentrations inhibiting 50% of the parasite's growth (half maximal inhibitory concentration or IC50 values) were then calculated from the obtained experimental results by non-linear regression analysis of data from dose-response curves, using TableCurve 2D version 5.0 software (Systat Software, San Jose, CA). IC50 values are reported as means calculated from three independent experiments, as described in H. Kaddouri et al., Antimicrob.
The test system of series [4] is Plasmodium telomeric sequence FPf8T. The series is described as follows: FRET-melting, FPf8T. The settings on record: K+ condition, 2 μM compound, 0.2 μM oligonucleotide.
The next series deals with SARS-CoV-2. The series is described as follows: microbe, parasite or virus in culture. Type of series: cell-based. Conditions: Severe acute respiratory syndrome coronavirus 2; A549 cells expressing human ACE2, 72 hours after infection, RT-PCR of the N-gene; read-out: IC50 RTqPCR SARS-CoV-2.
The nature of series [5]: Cytotoxicity evaluation, MTT. The settings on record: HepG2 cells (hepatocarcinoma-derived, ATCC HB-8065); human HepG2 cells, 72 hours, MTT. Type of series: cell-based, human. As to the method: as §1, §2
Series [6] relates to Plasmodium telomeric sequence FPf1T. Kind of series: FRET-melting, FPf1T. The settings on record: K+ condition, 2 μM compound, 0.2 μM oligonucleotide.
Series [7] relates to Trypanosoma 9 and 11 chromosomic sequence FTrypBT. The series is described as follows: FRET-melting, FTrypBT. The settings on record: K+ condition, 2 μM compound, 0.2 μM oligonucleotide.
The subject of series [8] is human telomeric sequence F21T. Kind of series: FRET-melting, F21T. Conditions: K+ condition, 2 μM compound, 0.2 μM oligonucleotide.
Setting [9] is: Plasmodium falciparum, W2, 48 h, read-out: IC50 Plasmodium falciparum W2, chloroquine-resistant strain W2, 48-hour incubation.
Setting [10] is: Plasmodium falciparum, 3D7, 48 h, read-out: IC50 Plasmodium falciparum 3D7, chloroquine-sensitive strain 3D7, 48-hour incubation.

Structures can show the parent of a compound that is named as a salt. Where two headings read alike, the source gives them in different places.

Method for Plasmodium falciparum W2: as §3, §4

Regarding “2-(3-Dimethylaminopropylamino)-4-{4-[(4-dimethylaminopropyl)aminomethyl]phenyl}-7-phenyl-7H-pyrrolo[2,3-d]pyrimidine oxalate [Compound 14B]”, in [1], the “FRET-melting values in K+ conditions at 2 μM ΔTm FdxT” value was −0.7 °C. For the same compound, the IC50 in [2] (69-hour incubation, Alamar Blue) amounted to 890 ± 90 nM; with HepG2 cells it was 13500 nM; in the series with Plasmodium falciparum W2 (read-out: IC50 Plasmodium falciparum W2, chloroquine-resistant strain W2, 48-hour incubation), 290 ± 100 nM; in series [3] (read-out: IC50 Plasmodium falciparum 3D7, chloroquine-sensitive strain 3D7, 48-hour incubation) it was 1480 ± 290 nM.

For `CN(C)CCCNCc1ccc(-c2nc(-c3ccc(CNCCCN(C)C)cc3)c3ccn(-c4ccccc4)c3n2)cc1` [Compound 1B, 2,4-bis{4-[(3-dimethylaminopropyl)aminomethyl]phenyl}-7-phenyl-7H-pyrrolo[2,3-d]pyrimidine oxalate], the “FRET-melting values in K+ conditions at 2 μM ΔTm FPf8T” value in series [4] stood at 23.5 °C. In addition, in series [1], the “FRET-melting values in K+ conditions at 2 μM ΔTm FdxT” value was found to be 1.2 °C. Further, the IC50 in [2] (Trypanosoma brucei, 69 h) amounted to 550 ± 70 nM; in the series on SARS-CoV-2, 330 nM; in the series on Plasmodium falciparum W2 (setting [9]), 2710 ± 140 nM; in [3] (setting [10]), 2220 ± 120 nM. This compound returned an IC50 at 72 h in [5] of 1640 nM. In addition, the “FRET-melting values in K+ conditions at 2 μM ΔTm FPf1T” value in [6] amounted to 23.6 °C. Besides, the “FRET-melting values in K+ conditions at 2 μM ΔTm FtryBT” value in series [7] turned out to be 20.5 °C. In series [8], the “FRET-melting values in K+ conditions at 2 μM ΔTm F21T” value was determined as 22.8 °C.

Regarding `CN(C)CCCNCc1ccc(-c2nc(-c3ccc(CNCCCN(C)C)cc3)c3ccn(-c4ccc(CNCCCN(C)C)cc4)c3n2)cc1` [Compound 13B, 2,4,7-Tri{4-[(3-dimethylaminopropyl)aminomethyl]phenyl}-7H-pyrrolo[2,3-d]pyrimidine oxalate], the “FRET-melting values in K+ conditions at 2 μM ΔTm FPf8T” value in series [4] was 34.6 °C. Also, the “FRET-melting values in K+ conditions at 2 μM ΔTm FdxT” value in series [1] was found to be 5.4 °C. Moreover, the IC50 in [2] (Trypanosoma brucei, 69 h) turned out to be 860 ± 70 nM; in the series with SARS-CoV-2, 170 nM; with Plasmodium falciparum W2 (setting [9]), 10600 ± 690 nM; in [3] (setting [10]) it was 2440 ± 1270 nM. Also, the IC50 at 72 h in series [5] amounted to 26700 nM. For the same compound, in [6], the “FRET-melting values in K+ conditions at 2 μM ΔTm FPf1T” value was 33.1 °C. Moreover, the “FRET-melting values in K+ conditions at 2 μM ΔTm FtryBT” value in series [7] came out at 30.7 °C. In [8], the “FRET-melting values in K+ conditions at 2 μM ΔTm F21T” value came out at 29.1 °C.
